{"source": "BindingDB's records for patent US20250257059", "about": "(Nerio Therapeutics, 2025)"}
{"biological_target": "T1, Tyrosine-protein phosphatase non-receptor type 2 (Homo sapiens, UniProt P17706)", "T1 sequence (P17706 whole entry)": "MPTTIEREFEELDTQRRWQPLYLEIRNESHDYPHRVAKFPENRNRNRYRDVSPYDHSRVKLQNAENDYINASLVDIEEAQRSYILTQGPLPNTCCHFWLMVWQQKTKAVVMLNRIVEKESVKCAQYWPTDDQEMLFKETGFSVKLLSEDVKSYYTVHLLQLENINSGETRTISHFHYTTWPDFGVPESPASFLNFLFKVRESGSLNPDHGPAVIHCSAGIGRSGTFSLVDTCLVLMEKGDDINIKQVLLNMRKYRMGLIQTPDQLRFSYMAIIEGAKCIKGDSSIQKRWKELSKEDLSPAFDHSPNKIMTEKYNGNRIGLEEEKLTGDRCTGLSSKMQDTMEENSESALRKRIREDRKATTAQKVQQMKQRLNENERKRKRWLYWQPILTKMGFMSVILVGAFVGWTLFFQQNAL", "assay": "In vitro enzymatic assay", "experimental": "PTPN2 was produced in E. coli as a GST-TEV fusion and the GST was removed by TEV digestion, followed by additional purification to yield full-length PTPN2 (SEQ ID 1). PTPN2 enzyme was diluted in assay buffer (50 mM HEPES pH7.5, 0.2 mM EDTA, 1 mM DTT, 0.02% Brij-35, 0.02% BSA) to a final concentration of 0.5 nM and added to black 384-well non-binding plates (Greiner, 781900). Compounds were subsequently added using a Tecan D300e dispenser. Following a 10 min incubation at room temperature, DiFMUP substrate (ThermoFisher, D22065) was added to a final concentration of 100 μM. Plates were transferred to a SpectraMax plate reader (Molecular Devices) and fluorescence intensity was measured (ex 358, em 455) after a 30 min incubation at room temperature. […] A four-parameter curve fit was used to determine IC50 values from % inhibition data.", "units": {"IC50": "nM"}}
{"smiles": "O=C1CN(c2c(O)cc(CC3CCN(Cc4ccco4)C3)cc2F)S(=O)(=O)N1", "note": "(centres undefined) [US20250257059, Example 7]", "IC50": 7}
{"smiles": "O=C1CN(c2c(O)cc(CC3CCCCNC3)cc2F)S(=O)(=O)N1", "note": "(centres undefined) [US20250257059, Example 55]", "IC50": 16}
{"smiles": "CC(C)CCCN1CCCCC1Cc1ccc(O)c(N2CC(=O)NS2(=O)=O)c1F", "note": "(centres undefined) [US20250257059, Example 79]", "IC50": 7}
{"smiles": "O=C1CN(c2c(O)ccc(CC3CCCCN3CCC3CCCC3)c2F)S(=O)(=O)N1", "note": "(centres undefined) [US20250257059, Example 80]", "IC50": 5}
{"smiles": "O=C1CN(c2c(O)cc(CCN3CCOCC3)cc2F)S(=O)(=O)N1", "note": "[US20250257059, Example 89]", "IC50": 7}
{"smiles": "O=C1CN(c2c(O)cc(CCN3CCCC(F)C3)cc2F)S(=O)(=O)N1", "note": "(centres undefined) [US20250257059, Example 97]", "IC50": 3}
{"smiles": "COC1CCN(CCc2cc(O)c(N3CC(=O)NS3(=O)=O)c(F)c2)CC1", "note": "[US20250257059, Example 104]", "IC50": 3}
{"smiles": "CC(C)(C)C1CCN(CCc2cc(O)c(N3CC(=O)NS3(=O)=O)c(F)c2)C1", "note": "(centres undefined) [US20250257059, Example 111]", "IC50": 2}
{"smiles": "O=C1CN(c2c(O)cc(CCN3CCC4(CCCC4)C3)cc2F)S(=O)(=O)N1", "note": "[US20250257059, Example 112]", "IC50": 2}
{"smiles": "O=C1CN(c2c(O)cc(CCN3CCC4(CCOCC4)C3)cc2F)S(=O)(=O)N1", "note": "[US20250257059, Example 113]", "IC50": 2}
{"smiles": "COC[C@@H]1CCN(CCc2cc(O)c(N3CC(=O)NS3(=O)=O)c(F)c2)C1", "note": "[US20250257059, Example 117]", "IC50": 1}
{"smiles": "O=C1CN(c2c(O)cc(CCN3CC[C@@H](C(F)(F)F)C3)cc2F)S(=O)(=O)N1", "note": "[US20250257059, Example 122]", "IC50": 3}
{"smiles": "CC1(C)CN(CCc2cc(O)c(N3CC(=O)NS3(=O)=O)c(F)c2)C1", "note": "[US20250257059, Example 127]", "IC50": 2}
{"smiles": "O=C1CN(c2c(O)cc(CCN3Cc4ccccc4C3)cc2F)S(=O)(=O)N1", "note": "[US20250257059, Example 128]", "IC50": 2}
{"smiles": "CC(C)[C@@H]1CCN(CCc2cc(O)c(N3CC(=O)NS3(=O)=O)c(F)c2)C1", "note": "[US20250257059, Example 134]", "IC50": 1}
{"smiles": "CC(C)[C@H]1CCN(CCc2cc(O)c(N3CC(=O)NS3(=O)=O)c(F)c2)C1", "note": "[US20250257059, Example 135]", "IC50": 2}
{"smiles": "O=C1CN(c2c(O)cc(CCN3CC(F)C3)cc2F)S(=O)(=O)N1", "note": "[US20250257059, Example 136]", "IC50": 3}
{"smiles": "O=C1CN(c2c(O)cc(CCN3CC(C(F)(F)F)C3)cc2F)S(=O)(=O)N1", "note": "[US20250257059, Example 137]", "IC50": 5}
{"smiles": "CC1CN(CCc2cc(O)c(N3CC(=O)NS3(=O)=O)c(F)c2)C1", "note": "[US20250257059, Example 140]", "IC50": 2}
